The structures appear in SMILES notation.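 Five compound concentrations were applied to cells in 96-well plates for 48 hours; endpoints were derived by simple linear interpolation of the resulting dose-response curve. Abbreviation: GI50, concentration required for 50% inhibition of growth.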 The source made the active and inactive calls. Cut-off read from the data, not from the text of the source: active = GI50 up to about 1.1 µM and inactive = higher.

We go through ten compounds from ChEMBL document CHEMBL1201862, “PubChem BioAssay data set” (2004).

Test systems include K562; IGROV-1; MOLT-4; A498; OVCAR-3; RPMI-8226; SK-MEL-5; MDA-MB-435; BT-549; HT-29; ACHN; U-251; DU-145; HOP-92; Hs-578T; SW-620; SF-268; NCI-H522; MDA-N.
Holding throughout (assay): NCI anticancer screen, dose series, 48 h

On to `NCCNc1nc(N2CCCC2)c2nc(Cl)c(NCc3ccccc3)nc2n1`, for which the GI50 in the assay on K562 was 0.122 µM (active); in the assay on IGROV-1 it was 1.66 µM (inactive); in the assay on MOLT-4, 2.13 µM (inactive); in the assay with A498, 1.83 µM (inactive); in the assay on OVCAR-3, 1.68 µM (inactive); in the assay with RPMI-8226 it was 1.88 µM (inactive). For the same compound, the GI50 in the assay on SK-MEL-5 is 1.75 µM (inactive); with MDA-MB-435 it was 1.69 µM (inactive); in the assay on BT-549, 1.98 µM (inactive); in the assay on HT-29, 1.95 µM (inactive); in the assay with ACHN, 1.95 µM (inactive); in the assay with U-251 it was 1.63 µM (inactive). Further, the GI50 was 1.61 µM (inactive) in the assay on DU-145; 1.78 µM (inactive) in the assay with HOP-92; 2.53 µM (inactive) in the assay with Hs-578T; 2.04 µM (inactive) with SW-620; 1.96 µM (inactive) in the assay on SF-268; 1.67 µM (inactive) with NCI-H522. Moreover, in the assay on MDA-N, the GI50 was 1.67 µM (inactive).
Turning to `CC(CCC(=O)O)(c1cc(Br)c(O)c(Br)c1)c1cc(Br)c(O)c(Br)c1`, the GI50 in the assay with K562 is 71.3 µM (inactive); in the assay with IGROV-1, 88.3 µM (inactive); in the assay with MOLT-4, 48.3 µM (inactive); in the assay on A498, 30.5 µM (inactive); with OVCAR-3, 60.3 µM (inactive); with RPMI-8226, 48.8 µM (inactive). Besides, the GI50 in the assay with SK-MEL-5 was 29.4 µM (inactive); in the assay with MDA-MB-435, 65.8 µM (inactive); in the assay on BT-549 it was 38.4 µM (inactive); with HT-29 it was 93.1 µM (inactive); in the assay with ACHN, 87.1 µM (inactive); with U-251 it was 48.9 µM (inactive). The GI50 was 70.3 µM (inactive) with DU-145; > 100 µM (inactive) in the assay with HOP-92; > 100 µM (inactive) in the assay on Hs-578T; 84.3 µM (inactive) with SW-620; 59.7 µM (inactive) with SF-268; 39.6 µM (inactive) in the assay on NCI-H522. For the same compound, the GI50 in the assay on MDA-N is 70 µM (inactive).
Take `COC1(c2cccs2)c2ccccc2C(OC)(c2cccs2)c2ccccc21` (stereo not given): the GI50 was 36 µM (inactive) in the assay with K562; > 100 µM (inactive) in the assay on IGROV-1; 16.7 µM (inactive) in the assay with MOLT-4; 28.5 µM (inactive) with A498; > 100 µM (inactive) with OVCAR-3; 63.2 µM (inactive) in the assay with RPMI-8226. Also, the GI50 is > 100 µM (inactive) in the assay on SK-MEL-5; > 100 µM (inactive) in the assay on MDA-MB-435; 78.5 µM (inactive) in the assay with BT-549; 50.8 µM (inactive) in the assay on HT-29; > 100 µM (inactive) in the assay with ACHN; 42.4 µM (inactive) in the assay with U-251. The GI50 with DU-145 was 71 µM (inactive); in the assay with HOP-92 it was 54.2 µM (inactive); in the assay on Hs-578T it was 0.518 µM (active); in the assay on SW-620 it was > 100 µM (inactive); in the assay on SF-268 it was 48.5 µM (inactive); in the assay on NCI-H522, 97.9 µM (inactive). The GI50 in the assay on MDA-N is > 100 µM (inactive).
Take `C=CCCCC1(C)CCNC1=S` (stereo not given): the GI50 in the assay with K562 is > 100 µM (inactive); in the assay with IGROV-1, > 100 µM (inactive); in the assay on MOLT-4 it was 66.5 µM (inactive); in the assay with A498, > 100 µM (inactive); with OVCAR-3, > 100 µM (inactive); in the assay on RPMI-8226 it was > 100 µM (inactive). Moreover, the GI50 in the assay with SK-MEL-5, in the assay on MDA-MB-435, in the assay with BT-549, with HT-29, in the assay on ACHN and in the assay on U-251 was > 100 µM (inactive) in each case. Further, the GI50 in the assay on DU-145, in the assay with HOP-92, in the assay on Hs-578T, in the assay with SW-620, with SF-268 and with NCI-H522 was > 100 µM (inactive) in each case. Further, the GI50 with MDA-N was > 100 µM (inactive).
With `c1ccc(C2=NN(c3nc4ccccc4s3)C3(CCCCC3)N2)nc1`, the GI50 was 16.6 µM (inactive) in the assay on K562; 19.7 µM (inactive) in the assay on IGROV-1; 4.01 µM (inactive) in the assay with MOLT-4; 32.2 µM (inactive) in the assay on A498; 16.7 µM (inactive) in the assay on OVCAR-3; 16.1 µM (inactive) with RPMI-8226. Besides, the GI50 was 20.1 µM (inactive) in the assay with SK-MEL-5; 23.4 µM (inactive) in the assay with MDA-MB-435; 20.5 µM (inactive) in the assay on BT-549; 19.9 µM (inactive) in the assay on HT-29; 29.9 µM (inactive) in the assay on ACHN; 20.4 µM (inactive) in the assay on U-251. Besides, the GI50 is 35.7 µM (inactive) with DU-145; 31.7 µM (inactive) in the assay on HOP-92; 31.7 µM (inactive) with Hs-578T; 30.7 µM (inactive) with SW-620; 59.2 µM (inactive) with SF-268; 26.5 µM (inactive) in the assay on NCI-H522. For the same compound, in the assay with MDA-N, the GI50 is 24.9 µM (inactive).
With `CCOC(=O)CCC(C(=O)OCC)n1nc2ccc(Nc3c(C)[n+]([O-])c4ccc(Cl)cc4[n+]3[O-])cc2n1` (stereo not given), the GI50 with K562 is 41.4 µM (inactive); in the assay on IGROV-1 it was 42.4 µM (inactive); in the assay on MOLT-4, 27.9 µM (inactive); in the assay on A498, 23.6 µM (inactive); in the assay on OVCAR-3, 24.9 µM (inactive); with RPMI-8226, 44.9 µM (inactive). Further, the GI50 with SK-MEL-5 was 21.8 µM (inactive); in the assay on MDA-MB-435, 30.2 µM (inactive); with BT-549, 28.1 µM (inactive); in the assay on HT-29, 30.9 µM (inactive); with ACHN it was 15.8 µM (inactive); in the assay with U-251 it was 15 µM (inactive). Besides, the GI50 was 20.1 µM (inactive) with DU-145; 20.9 µM (inactive) with HOP-92; 21.4 µM (inactive) in the assay on Hs-578T; 33.7 µM (inactive) in the assay on SW-620; 12.2 µM (inactive) in the assay on SF-268; 30.1 µM (inactive) with NCI-H522. The GI50 in the assay on MDA-N was 42.8 µM (inactive).
In the case of `COc1ccc2c(c1)-c1c(c3ccccc3n1CCN1CCCCC1)CC2`, the GI50 in the assay with K562 was 11.9 µM (inactive); in the assay on IGROV-1, 13.8 µM (inactive); with MOLT-4, 15.9 µM (inactive); in the assay with A498, 34 µM (inactive); in the assay on OVCAR-3, 6.08 µM (inactive); with RPMI-8226, 11.3 µM (inactive). For the same compound, the GI50 in the assay on SK-MEL-5 is 14.6 µM (inactive); with MDA-MB-435, 24.9 µM (inactive); with BT-549 it was 23.1 µM (inactive); in the assay with HT-29 it was 10.3 µM (inactive); with ACHN, 33.7 µM (inactive); in the assay with U-251 it was 19.5 µM (inactive). The GI50 in the assay on DU-145 was 53.8 µM (inactive); in the assay on HOP-92 it was 21.8 µM (inactive); with Hs-578T it was 9.82 µM (inactive); in the assay on SW-620, 26.1 µM (inactive); in the assay with SF-268, 17.4 µM (inactive); with NCI-H522, 14.6 µM (inactive). In the assay with MDA-N, the GI50 was 23.7 µM (inactive).
On to `CC1=C(C(=O)OCCO[N+](=O)[O-])C(c2ccccc2[N+](=O)[O-])C(C(=O)OC(C)C)=C(C)N1` (stereo not given), for which the GI50 with K562 is 49.1 µM (inactive); in the assay on IGROV-1, 15.6 µM (inactive); with MOLT-4, 40.9 µM (inactive); in the assay on A498, 20.7 µM (inactive); in the assay on OVCAR-3, 13 µM (inactive); with RPMI-8226 it was 84.9 µM (inactive). For the same compound, the GI50 was 13.9 µM (inactive) with SK-MEL-5; 15 µM (inactive) in the assay with MDA-MB-435; 16.5 µM (inactive) in the assay with BT-549; 15.7 µM (inactive) with HT-29; 13.1 µM (inactive) in the assay on ACHN; 16.2 µM (inactive) with U-251. The GI50 in the assay on DU-145 is 20.7 µM (inactive); with HOP-92 it was 14.5 µM (inactive); in the assay on Hs-578T, 14.8 µM (inactive); in the assay with SW-620 it was 19.2 µM (inactive); in the assay on SF-268 it was 20.4 µM (inactive); in the assay with NCI-H522 it was 16 µM (inactive). In addition, the GI50 with MDA-N is 17.2 µM (inactive).
As to `CCOC(=O)c1cc(C)nc2c1c(=O)n(-c1ccccc1)c(=O)n2CCCCN1CCN(c2ncccn2)CC1`, the GI50 is 39.1 µM (inactive) in the assay on K562; > 100 µM (inactive) with IGROV-1; 11.3 µM (inactive) in the assay with MOLT-4; 20.8 µM (inactive) in the assay with A498; 94 µM (inactive) in the assay with OVCAR-3; 23.8 µM (inactive) in the assay on RPMI-8226. Besides, the GI50 is 35.2 µM (inactive) in the assay with SK-MEL-5; > 100 µM (inactive) in the assay on MDA-MB-435; 45.1 µM (inactive) with BT-549; > 100 µM (inactive) in the assay with HT-29; > 100 µM (inactive) in the assay on ACHN; > 100 µM (inactive) in the assay on U-251. In addition, the GI50 in the assay on DU-145 is > 100 µM (inactive); in the assay on HOP-92, 34.6 µM (inactive); in the assay with Hs-578T, > 100 µM (inactive); in the assay on SW-620, > 100 µM (inactive); in the assay with SF-268, > 100 µM (inactive); in the assay on NCI-H522, > 100 µM (inactive). Moreover, the GI50 with MDA-N is > 100 µM (inactive).
With `O=c1c2c3c(sc2nc2n1N=CN(c1ccc(Cl)cc1)C2)CCCC3`, the GI50 was 19.3 µM (inactive) in the assay on K562; > 100 µM (inactive) in the assay on IGROV-1; 17.9 µM (inactive) in the assay on MOLT-4; 4.12 µM (inactive) with A498; 19.4 µM (inactive) with OVCAR-3; 46.8 µM (inactive) with RPMI-8226. The GI50 in the assay on SK-MEL-5 was 44.8 µM (inactive); in the assay with MDA-MB-435, > 100 µM (inactive); in the assay on BT-549 it was > 100 µM (inactive); in the assay with HT-29, 19.5 µM (inactive); in the assay with ACHN, 75 µM (inactive); in the assay on U-251, 54.1 µM (inactive). Further, the GI50 in the assay on DU-145 is 21.3 µM (inactive); in the assay with HOP-92, 8.47 µM (inactive); with Hs-578T, 3.93 µM (inactive); in the assay on SW-620, > 100 µM (inactive); in the assay with SF-268, 20.8 µM (inactive); with NCI-H522, 10.5 µM (inactive). The GI50 in the assay with MDA-N was 56.6 µM (inactive).
